Measured values: ChEMBL document CHEMBL1125670, “Synthesis and evaluation of novel ether lipid nucleoside conjugates for anti-HIV-1 activity” (J Med Chem, 1991)

Legend:
[1] = system: CEM-SS; experiment: Concentration of compound required to 50% growth inhibition of CEM-SS cells
[2] = system: Human immunodeficiency virus 1; experiment: Anti-HIV-1 activity against syncytial plaque formation; assay type: functional, organism-based
[3] = system: Human immunodeficiency virus 1; experiment: Anti-HIV-1 activity against syncytial plaque formation at a conc. of 0.0003 uM; assay type: functional
[4] = system: U1; experiment: (§1) inhibition of HIV-1 induced RT production in U1 cells; assay type: functional, Homo sapiens
[5] = system: Human immunodeficiency virus 1; experiment: Anti-HIV-1 activity against syncytial plaque formation at a conc. of 0.006 uM; assay type: functional
[6] = system: U1; experiment: (§2) inhibition of infectious virus production in U1 cells; assay type: functional, Homo sapiens
[7] = system: Human immunodeficiency virus 1; experiment: Anti-HIV-1 activity against syncytial plaque formation at a conc. of 0.003 uM; assay type: functional
[8] = system: Human immunodeficiency virus 1; experiment: Anti-HIV-1 activity against syncytial plaque formation at a conc. of 0.0007 uM; assay type: functional
[9] = system: U1; experiment: (§3) inhibition of p24 core antigen synthesis in U1 cells; assay type: functional, Homo sapiens
[10] = system: Human immunodeficiency virus 1; experiment: Anti-HIV-1 activity against syncytial plaque formation at a conc. of 0.0015 uM; assay type: functional
[11] = system: Human immunodeficiency virus 1; experiment: Anti-HIV-1 activity against syncytial plaque formation at a conc. of 0.012 uM; assay type: functional
[12] = system: U1; experiment: as §1; assay type: functional, Homo sapiens; parameters: scale not given: the % may be the effect or the level left
[13] = system: U1; experiment: as §3; assay type: functional, Homo sapiens; parameters: scale not given: the % may be the effect or the level left
[14] = system: U1; experiment: as §2; assay type: functional, Homo sapiens; parameters: scale not given: the % may be the effect or the level left
[15] = system: Human immunodeficiency virus 1; experiment: Anti-HIV-1 activity against syncytial plaque formation at a conc. of 1 uM; assay type: functional
[16] = system: Human immunodeficiency virus 1; experiment: Anti-HIV-1 activity against syncytial plaque formation at a conc. of 0.25 uM; assay type: functional
[17] = system: Human immunodeficiency virus 1; experiment: Anti-HIV-1 activity against syncytial plaque formation at a conc. of 0.12 uM; assay type: functional
[18] = system: Human immunodeficiency virus 1; experiment: Anti-HIV-1 activity against syncytial plaque formation at a conc. of 0.03 uM; assay type: functional
[19] = system: Human immunodeficiency virus 1; experiment: Anti-HIV-1 activity against syncytial plaque formation at a conc. of 0.06 uM; assay type: functional
[20] = system: Human immunodeficiency virus 1; experiment: Anti-HIV-1 activity against syncytial plaque formation at a conc. of 0.5 uM; assay type: functional

## CCCCCCCCCCCCCCCCCC(=O)NCC(CO)OCC (stereo not given)
[1]
  IC50: > 100 µM
[2]
  IC50: > 100 µM

## O=c1[nH]cnc2c1ncn2[C@H]1CC[C@@H](CO)O1 [DIDANOSINE]
[1]
  IC50: > 100 µM
[2]
  IC50: 1.7 µM

## CCCCCCCCCCCCCCCCOCC(COP(=O)(O)OC[C@H]1O[C@@H](n2cc(C)c(=O)[nH]c2=O)C[C@@H]1N=[N+]=[N-])OCC (stereo not given in full)
[1]
  IC50: 35 µM
[2]
  IC50: 0.03 µM

## CCCCCCCCCCCCCCCCCCOCC(COP(=O)([O-])OCC[N+](C)(C)C)OC (stereo not given) [EDELFOSINE]
[1]
  IC50: 4 µM
[2]
  IC50: 1.4 µM

## CCCCCCCCCCCCCCCCCC(=O)NCC(COP(=O)(O)OC[C@@H]1CC[C@H](n2cnc3c(=O)[nH]cnc32)O1)OCC (stereo not given in full)
[1]
  IC50: > 100 µM
[2]
  IC50: 1.56 µM

## Cc1cn([C@H]2C[C@H](N=[N+]=[N-])[C@@H](CO)O2)c(=O)[nH]c1=O [ZIDOVUDINE]
[3]
  inhibition at 0.0003 µM: 18%
[4]
  Of control: 90%
[5]
  inhibition at 0.006 µM: 87%
[6]
  Of control: 87%
[7]
  inhibition at 0.003 µM: 79%
[8]
  inhibition at 0.0007 µM: 53%
[1]
  IC50: 5.1 µM
[9]
  Of control: 101%
[10]
  inhibition at 0.0015 µM: 70%
[11]
  inhibition at 0.012 µM: 93%

## CCCCCCCCCCCCCCCCCC(=O)NCC(COP(=O)([O-])OC[C@H]1O[C@@H](n2cc(C)c(=O)[nH]c2=O)C[C@@H]1N=[N+]=[N-])OCC.[Na+] (stereo not given in full)
[12]
  Control: 121%
[1]
  IC50: 53.8 µM
[13]
  Control: 84%
[2]
  IC50: 0.03 µM
[14]
  Control: 67%

## CCCCCCCCCCCCCCCCCC(=O)NCC(COP(=O)(O)O)OCC (stereo not given)
[1]
  IC50: > 100 µM
[2]
  IC50: > 100 µM

## CCCCCCCCCCCCCCCCCC(=O)[N-]CC(COP(=O)([O-])OCC[N+](C)(C)C)OCC.[Na+] (stereo not given)
[15]
  inhibition at 1 µM: 89%
[12]
  Control: 147%
[16]
  inhibition at 0.25 µM: 60%
[17]
  inhibition at 0.12 µM: 49%
[1]
  IC50: 14.3 µM
[13]
  Control: 74%
[18]
  inhibition at 0.03 µM: 14%
[2]
  IC50: 0.11 µM
[19]
  inhibition at 0.06 µM: 34%
[14]
  Control: 33%
[20]
  inhibition at 0.5 µM: 74%

## CCCCCCCCCCCCCCCCSCC(COP(=O)([O-])OCC[N+](C)(C)C)OCC (stereo not given)
[1]
  IC50: 4.1 µM
[2]
  IC50: 0.6 µM
